We go through 2 compounds from patent publication US20070259923A1, “MGluR5 modulators IV” (AstraZeneca AB, priority 2006, published 2007).

Structures are written as SMILES. pIC50: −log10 of the molar value.

A short description of data set [1]: Determination of brain to plasma ratio in rat. Type of data set: in vivo. The settings on record: brain and plasma, female Sprague Dawley rats, read-out: Brain/Plasma Ratio of compound in Rat. How it is done:
Brain to plasma ratios are estimated in female Sprague Dawley rats. The compound is dissolved in water or another appropriate vehicle. For determination of brain to plasma ratio the compound is administrated as a subcutaneous, or an intravenous bolus injection, or an intravenous infusion, or an oral administration. At a predetermined time point after the administration a blood sample is taken with cardiac puncture. The rat is terminated by cutting the heart open, and the brain is immediately retained. The blood samples are collected in heparinized tubes and centrifuged within 30 minutes, in order to separate the plasma from the blood cells. The plasma is transferred to 96-well plates and stored at −20° C. until analysis. The brains are divided in half, and each half is placed in a pre-tarred tube and stored at −20° C. until analysis. Prior to the analysis, the brain samples are thawed and 3 ml/g brain tissue of distilled water is added to the tubes. The brain samples are sonicated in an ice bath until the samples are homogenized. Both brain and plasma samples are precipitated with acetonitrile. After centrifugation, the supernatant is diluted with 0.2% formic acid. […] After reconstitution of the residuals the samples are ready for injection onto the HPLC column.

The target in data set [2] is T1, human mGluR5d (Homo sapiens, UniProt P41594).
T1 construct: expressed in transfected cells; the IP3 assay names GHEK cells stably expressing human mGluR5d
T1 sequence (P41594 21-942 isoform P41594-3 limits assumed): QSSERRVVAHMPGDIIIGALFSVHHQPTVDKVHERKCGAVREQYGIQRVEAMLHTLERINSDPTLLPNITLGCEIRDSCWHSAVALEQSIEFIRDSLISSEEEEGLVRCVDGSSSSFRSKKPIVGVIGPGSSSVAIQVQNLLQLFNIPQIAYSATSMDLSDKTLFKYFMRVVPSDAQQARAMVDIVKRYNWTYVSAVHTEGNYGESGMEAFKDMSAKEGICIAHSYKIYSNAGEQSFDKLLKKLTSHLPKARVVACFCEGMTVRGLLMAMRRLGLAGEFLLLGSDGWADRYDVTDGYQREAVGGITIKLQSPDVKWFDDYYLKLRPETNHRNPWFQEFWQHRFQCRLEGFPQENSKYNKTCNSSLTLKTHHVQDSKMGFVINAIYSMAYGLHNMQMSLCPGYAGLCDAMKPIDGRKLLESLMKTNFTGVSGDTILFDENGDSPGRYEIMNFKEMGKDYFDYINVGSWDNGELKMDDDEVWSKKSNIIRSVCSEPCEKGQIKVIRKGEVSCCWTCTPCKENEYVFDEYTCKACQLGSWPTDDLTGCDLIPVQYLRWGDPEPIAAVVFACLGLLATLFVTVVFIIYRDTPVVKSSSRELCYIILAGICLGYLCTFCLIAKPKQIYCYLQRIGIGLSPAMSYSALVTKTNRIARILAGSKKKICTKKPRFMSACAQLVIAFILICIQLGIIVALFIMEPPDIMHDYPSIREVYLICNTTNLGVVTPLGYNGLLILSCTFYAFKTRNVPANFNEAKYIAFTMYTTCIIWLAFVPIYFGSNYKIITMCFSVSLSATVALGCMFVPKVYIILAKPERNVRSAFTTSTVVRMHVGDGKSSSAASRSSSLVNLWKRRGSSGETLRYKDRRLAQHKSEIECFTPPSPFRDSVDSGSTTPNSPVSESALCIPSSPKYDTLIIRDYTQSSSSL
Put plainly: FLIPR assay, mGluR5 antagonism (intracellular calcium mobilization). Type of data set: cell-based. The following applies: cells expressing human mGluR5d; read-out: FLIPR hmGluR5d. The text has this:
The properties of the compounds of the invention can be analyzed using standard assays for pharmacological activity. Examples of glutamate receptor assays are well known in the art as described in for example Aramori et al., Neuron 8:757 (1992), Tanabe et al., Neuron 8:169 (1992), Miller et al., J. Neuroscience 15: 6103 (1995), Balazs, et al., J. Neurochemistry 69:151 (1997). The methodology described in these publications is incorporated herein by reference. Conveniently, the compounds of the invention can be studied by means of an assay (FLIPR) that measures the mobilization of intracellular calcium, [Ca^2+]i in cells expressing mGluR5 or another assay (IP3) that measures inositol phosphate turnover.
Cells expressing human mGluR5d as described in WO97/05252 are seeded at a density of 100,000 cells per well on collagen coated clear bottom 96-well plates with black sides and experiments are done 24 h following seeding. […] The fluorescence signal is sampled 50 times at 1 second intervals followed by 3 samples at 5 second intervals immediately after each of the two additions. Responses are measured as the difference between the peak height of the response to agonist, less the background fluorescence within the sample period. […]

`Cn1c(-c2cccnc2)nnc1N1CCC[C@@H]1c1cc(-c2cccc(C#N)c2)on1` [Example 12.6, 3-{3-[(R)-1-(4-Methyl-5-pyridin-3-yl-4H-[1,2,4]triazol-3-yl)-pyrrolidin-2-yl]-isoxazol-5-yl}-benzonitrile]: the Kp in data set [1] was 0.05. For the same compound, the pIC50 in data set [2] is 7.07.

As to `Cc1cc(-c2nnc(N3CCC[C@@H]3c3cc(-c4cccc(C#N)c4)on3)n2C)ccn1` [Example 12.4, 3-(3-{(R)-1-[4-Methyl-5-(2-methyl-pyridin-4-yl)-4H-[1,2,4]triazol-3-yl]-pyrrolidin-2-yl}-isoxazol-5-yl)-benzonitrile], the Kp in data set [1] is 0.06. Besides, the pIC50 in data set [2] is 7.33.
